Structures are written as SMILES. A value given as a limit tells only on which side of the number the result lay.

For this experiment, the target named is Poly [ADP-ribose] polymerase 1 (Homo sapiens, UniProt P09874). Put plainly: Enzyme Assay: Inhibition of PARP-1 enzymatic activities was measured using an HT Universal Colorimetric PARP Assay Kit (Trevigen, catalogue #4677-096-K) following the standard procedures. Serial dilutions of PARP compounds were added to appropriate wells. The compound was incubated with PARP enzyme at RT for 10 min, and the reaction was initiated by addition of the PARP substrate cocktail, Each concentration of compound was tested in triplicate wells. After 15 min reaction, the reaction was stopped, and the Strep-HRP was added into each well and incubated for 1 h at RT. After addition of TACS-Sapphire colorimetric substrate and incubated in dark for 15 min, the OD450 was read out with an EnVision instrument. IC50 values (the concentration at which 50% of the enzyme activity is inhibited) were calculated, which are determined over a range of different concentrations, normally from 10 uM to 0.1 nM.
Poly [ADP-ribose] polymerase 1, sequence (P09874 whole entry): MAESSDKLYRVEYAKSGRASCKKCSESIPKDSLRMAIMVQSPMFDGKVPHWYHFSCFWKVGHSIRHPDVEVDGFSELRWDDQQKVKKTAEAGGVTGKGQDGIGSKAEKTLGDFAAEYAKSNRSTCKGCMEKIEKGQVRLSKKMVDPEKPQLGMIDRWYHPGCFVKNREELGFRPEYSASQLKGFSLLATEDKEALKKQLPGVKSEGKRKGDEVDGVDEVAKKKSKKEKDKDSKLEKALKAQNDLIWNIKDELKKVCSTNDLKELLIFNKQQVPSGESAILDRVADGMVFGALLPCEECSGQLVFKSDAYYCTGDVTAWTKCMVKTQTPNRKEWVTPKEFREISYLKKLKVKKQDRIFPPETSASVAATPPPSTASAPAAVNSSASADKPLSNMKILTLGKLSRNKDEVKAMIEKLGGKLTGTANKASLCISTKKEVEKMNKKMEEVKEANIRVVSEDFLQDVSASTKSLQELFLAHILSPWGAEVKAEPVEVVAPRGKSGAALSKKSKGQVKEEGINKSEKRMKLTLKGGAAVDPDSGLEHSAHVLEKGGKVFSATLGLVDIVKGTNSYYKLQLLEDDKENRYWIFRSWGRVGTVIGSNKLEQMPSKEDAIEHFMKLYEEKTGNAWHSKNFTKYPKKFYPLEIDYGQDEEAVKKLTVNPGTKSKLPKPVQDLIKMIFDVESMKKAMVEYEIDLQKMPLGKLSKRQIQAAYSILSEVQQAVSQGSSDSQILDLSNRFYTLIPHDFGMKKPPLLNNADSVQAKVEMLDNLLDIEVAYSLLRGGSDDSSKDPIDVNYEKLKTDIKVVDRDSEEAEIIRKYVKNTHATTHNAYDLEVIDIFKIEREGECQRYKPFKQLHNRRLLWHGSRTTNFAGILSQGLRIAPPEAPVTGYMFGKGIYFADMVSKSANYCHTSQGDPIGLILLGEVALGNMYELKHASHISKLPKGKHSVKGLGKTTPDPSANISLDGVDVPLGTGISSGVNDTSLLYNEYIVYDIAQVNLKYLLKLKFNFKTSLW
Regarding `CC(C)(C)C(=O)N1CCP(=O)(c2cc(Cc3n[nH]c(=O)c4ccccc34)ccc2F)CC1`, the IC50 (as a rule, the concentration at which inhibition is half-maximal) is < 100 nM.

Regarding `CC(C)P1(=O)CCN(C(=O)c2cc(Cc3n[nH]c(=O)c4ccccc34)ccc2F)CC1`, the IC50 is < 100 nM.

As for `CCP1(=O)CCN(C(=O)c2cc(Cc3n[nH]c(=O)c4ccccc34)ccc2F)CC1`, the IC50 was < 100 nM.

Regarding `O=c1[nH]nc(Cc2ccc(F)c(P3(=O)CCN(c4ncccn4)CC3)c2)c2ccccc12`, the IC50 was < 100 nM.

For the molecule `CCOP1(=O)CCN(C(=O)c2cc(Cc3n[nH]c(=O)c4ccccc34)ccc2F)CC1`, the IC50 was < 100 nM.

`CC(C)CN1CCP(=O)(c2cc(Cc3n[nH]c(=O)c4ccccc34)ccc2F)CC1`: the half-maximal inhibitory concentration (IC50) is < 100 nM.

`N#C/N=C(\N1CCC1)N1CCP(=O)(c2cc(Cc3n[nH]c(=O)c4ccccc34)ccc2F)CC1`: the IC50 is < 100 nM.

Values taken from ChEMBL document CHEMBL5728984, “Tricyclic inhibitors of poly(ADP-ribose)polymerase” (2022).
